Legend:
MAGL [1] = biological target: T1, MAGL (Mus musculus, UniProt O35678); experiment: In vitro competitive activity-based protein profiling (mouse), MAGL; format: biochemical; conditions: for inhibition at 1 µM: mouse proteome, in vitro, read-out: % Inhibition at 1 μM MAGL; for IC50: mouse brain membrane fraction or cell lysates, 30 min preincubation at 37° C, FP-Rh probe
T1 construct: Proteomes (mouse brain membrane fraction or cell lysates); from tissue; host or cells: mouse brain membrane fraction (or unspecified cell lysates)
T1 sequence (O35678 1-303): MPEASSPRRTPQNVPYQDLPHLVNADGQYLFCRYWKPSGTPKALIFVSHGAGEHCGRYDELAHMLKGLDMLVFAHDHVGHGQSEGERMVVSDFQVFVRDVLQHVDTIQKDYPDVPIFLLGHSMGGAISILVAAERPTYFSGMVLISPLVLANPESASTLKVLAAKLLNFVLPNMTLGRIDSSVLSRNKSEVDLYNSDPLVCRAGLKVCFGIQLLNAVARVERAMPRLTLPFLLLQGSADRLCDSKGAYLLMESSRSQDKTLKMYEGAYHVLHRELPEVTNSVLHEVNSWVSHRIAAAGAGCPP
Method: (§1) In Vitro Competitive Activity-Based Protein Profiling (Mouse).
(§2) Proteomes (mouse brain membrane fraction or cell lysates) (50 μL, 1.0 mg/mL total protein concentration) were preincubated with varying concentrations of inhibitors at 37° C. After 30 min, FP-Rh (1.0 μL, 50 μM in DMSO) was added and the mixture was incubated for another 30 min at 37° C. Reactions were quenched with SDS loading buffer (50 μL-4×) and run on SDS-PAGE.

FAAH [2] = biological target: T2, FAAH (Mus musculus, UniProt O08914); experiment: In vitro competitive activity-based protein profiling (mouse), FAAH; format: biochemical; conditions: for inhibition at 1 µM: mouse proteome, in vitro; for IC50: mouse brain membrane fraction or cell lysates, 30 min preincubation at 37° C, FP-Rh probe
T2 construct: Proteomes (mouse brain membrane fraction or cell lysates); from tissue; host or cells: mouse brain membrane fraction (or unspecified cell lysates)
T2 sequence (O08914 1-579): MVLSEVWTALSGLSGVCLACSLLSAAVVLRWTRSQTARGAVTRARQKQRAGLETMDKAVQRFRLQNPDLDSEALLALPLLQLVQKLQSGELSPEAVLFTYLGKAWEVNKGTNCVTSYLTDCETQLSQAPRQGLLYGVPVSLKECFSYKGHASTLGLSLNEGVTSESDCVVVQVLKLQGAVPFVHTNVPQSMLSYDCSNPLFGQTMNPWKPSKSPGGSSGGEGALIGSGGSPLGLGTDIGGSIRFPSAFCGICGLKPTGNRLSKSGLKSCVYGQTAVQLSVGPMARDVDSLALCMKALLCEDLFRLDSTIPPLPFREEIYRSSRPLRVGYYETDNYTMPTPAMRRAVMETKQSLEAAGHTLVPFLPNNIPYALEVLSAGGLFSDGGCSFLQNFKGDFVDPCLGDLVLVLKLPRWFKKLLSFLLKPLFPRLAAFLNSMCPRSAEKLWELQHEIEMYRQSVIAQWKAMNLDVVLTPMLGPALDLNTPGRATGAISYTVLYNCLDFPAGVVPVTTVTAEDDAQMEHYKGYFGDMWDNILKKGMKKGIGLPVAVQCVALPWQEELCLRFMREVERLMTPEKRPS
Method in brief: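 Mouse brain membrane fraction or cell lysates (1.0 mg/mL protein) preincubated with inhibitors 30 min at 37° C, then FP-Rh probe 30 min at 37° C. SDS-PAGE fluorescence band intensity gave FAAH activity.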

ABHD6 [3] = biological target: T3, ABHD6 (Mus musculus, UniProt Q8R2Y0); experiment: In vitro competitive activity-based protein profiling (mouse), ABHD6; format: biochemical; conditions: for inhibition at 1 µM: mouse proteome, in vitro, read-out: % Inhibition at 1 μM ABHD6; for IC50: mouse brain membrane fraction or cell lysates, 30 min preincubation at 37° C, FP-Rh probe
T3 construct: Proteomes (mouse brain membrane fraction or cell lysates); from tissue; host or cells: mouse brain membrane fraction (or unspecified cell lysates)
T3 sequence (Q8R2Y0 1-336): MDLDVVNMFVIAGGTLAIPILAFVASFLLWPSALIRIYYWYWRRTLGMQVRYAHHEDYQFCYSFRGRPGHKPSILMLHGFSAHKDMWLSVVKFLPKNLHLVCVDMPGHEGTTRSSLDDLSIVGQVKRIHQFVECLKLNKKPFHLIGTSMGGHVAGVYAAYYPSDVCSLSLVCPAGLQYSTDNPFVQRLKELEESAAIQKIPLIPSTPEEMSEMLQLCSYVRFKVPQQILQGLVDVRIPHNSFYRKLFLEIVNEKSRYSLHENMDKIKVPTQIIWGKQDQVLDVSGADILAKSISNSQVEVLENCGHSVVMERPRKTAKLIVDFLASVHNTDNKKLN
Method: as §1, §2

MAGL [4] = biological target: T1, MAGL; experiment: Mouse brain proteomes from inhibitor treated mice, MAGL; format: in vivo; conditions: 5 mg/kg oral gavage, C57Bl/6J mice, brain proteome 4 h after administration
Method: (§3) Preparation of Mouse Brain Proteomes from Inhibitor Treated Mice.
(§4) Inhibitors were administered to wild-type C57Bl/6J by oral gavage in a vehicle of polyethylene glycol.

FAAH [5] = biological target: T2, FAAH; experiment: Mouse brain proteomes from inhibitor treated mice, FAAH; format: in vivo; conditions: 5 mg/kg oral gavage, C57Bl/6J mice, brain proteome 4 h after administration
Method: as §3
Inhibitors were administered to wild-type C57Bl/6J by oral gavage in a vehicle of polyethylene glycol. Each animal was sacrificed 4 h following administration and brain proteomes were prepared and analyzed according to previously established methods (See Niphakis, M. J., et al. (2011) ACS Chem. Neurosci. and Long, J. Z., et al. Nat. Chem. Biol. 5:37-44)

ABHD6 [6] = biological target: T3, ABHD6; experiment: Mouse brain proteomes from inhibitor treated mice, ABHD6; format: in vivo; conditions: 5 mg/kg oral gavage, C57Bl/6J mice, brain proteome 4 h after administration
Method: as §3, §4

| SMILES | inhibition at 1 µM (MAGL [1]) | IC50 (MAGL [1]) | inhibition at 1 µM (FAAH [2]) | IC50 (FAAH [2]) | inhibition at 1 µM (ABHD6 [3]) | IC50 (ABHD6 [3]) | inhibition at 5 mg/kg (MAGL [4]) | inhibition at 5 mg/kg (FAAH [5]) | inhibition at 5 mg/kg (ABHD6 [6]) |
| --- | --- | --- | --- | --- | --- | --- | --- | --- | --- |
| CN(C)C(=O)C1CCN(c2cc(C(F)(F)F)ccc2CN2CCN(C(=O)OC(C(F)(F)F)C(F)(F)F)CC2)CC1 [Example 35, 1,1,1,3,3,3-hexafluoropropan-2-yl 4-(2-(4-(dimethylcarbamoyl)piperidin-1-yl)-4-(trifluoromethyl)benzyl)piperazine-1-carboxylate] | > 75% | < 100 nM | < 25% | > 1000 nM | < 25% | > 1000 nM | > 75% | < 25% | < 25% |
| O=C(O)[C@@H]1CCCN1c1cc(CN2CCN(C(=O)OC(C(F)(F)F)C(F)(F)F)CC2)cc(C(F)(F)F)c1 [Example 86, (3-((4-(((1,1,1,3,3,3-hexafluoropropan-2-yl)oxy)carbonyl)piperazin-1-yl)methyl)-5-(trifluoromethyl)phenyl)proline] | > 75% | 100 to 1000 nM | < 25% | > 1000 nM | 25 to 75% | 100 to 1000 nM | > 75% | < 25% | > 75% |
| O=C(OC(C(F)(F)F)C(F)(F)F)N1CCN(Cc2cccc(Cl)c2N2CC[C@H](CF)C2)CC1 [Example 55, 1,1,1,3,3,3-hexafluoropropan-2-yl (S)-4-(3-chloro-2-(3-(fluoromethyl)pyrrolidin-1-yl)benzyl)piperazine-1-carboxylate] | > 75% | < 100 nM | < 25% | > 1000 nM | < 25% | > 1000 nM | > 75% | < 25% | < 25% |
| O=C(OC(C(F)(F)F)C(F)(F)F)N1CCN(Cc2ccc(C(F)(F)F)c(N3CC4CCC(C3)O4)c2)CC1 [Example 26, 1,1,1,3,3,3-hexafluoropropan-2-yl 4-(3-(8-oxa-3-azabicyclo[3.2.1]octan-3-yl)-4-(trifluoromethyl)benzyl)piperazine-1-carboxylate] | > 75% | < 100 nM | < 25% | > 1000 nM | > 75% | 100 to 1000 nM | > 75% | < 25% | > 75% |
| CS(=O)(=O)N[C@H]1CCN(c2cc(Cl)ccc2CN2CCN(C(=O)OC(C(F)(F)F)C(F)(F)F)CC2)C1 [Example 40, 1,1,1,3,3,3-hexafluoropropan-2-yl (S)-4-(4-chloro-2-(3-(methylsulfonamido)pyrrolidin-1-yl)benzyl)piperazine-1-carboxylate] | > 75% | < 100 nM | < 25% | > 1000 nM | < 25% | > 1000 nM | > 75% | < 25% | < 25% |
| CS(=O)(=O)N[C@@H]1CCN(c2cc(C(F)(F)F)ccc2CN2CCN(C(=O)OC(C(F)(F)F)C(F)(F)F)CC2)C1 [Example 60, 1,1,1,3,3,3-hexafluoropropan-2-yl (R)-4-(2-(3-(methylsulfonamido)pyrrolidin-1-yl)-4-(trifluoromethyl)benzyl)piperazine-1-carboxylate] | > 75% | < 100 nM | < 25% | > 1000 nM | < 25% | > 1000 nM | > 75% | < 25% | < 25% |

Source: US9771341B2, “Piperazine carbamates and methods of making and using same” (Abide Therapeutics, Inc., priority 2015, dated 2017)
